From BindingDB's records for doi:10.1021/jm00161a009 (1986)

Each compound was assayed against T1, Carnitine palmitoyl transferase I liver isoform (Sus scrofa, UniProt Q9MYX2) (assay: ChEBML_44012).
T1 sequence (Q9MYX2 whole entry): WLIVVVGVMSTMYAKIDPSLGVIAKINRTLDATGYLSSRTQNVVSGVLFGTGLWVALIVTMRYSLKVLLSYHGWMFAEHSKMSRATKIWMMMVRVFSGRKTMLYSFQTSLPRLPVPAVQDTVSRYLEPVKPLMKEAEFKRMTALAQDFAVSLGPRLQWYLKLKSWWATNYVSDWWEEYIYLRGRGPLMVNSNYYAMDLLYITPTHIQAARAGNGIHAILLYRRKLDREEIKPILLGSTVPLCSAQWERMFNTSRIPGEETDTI
Protocol: Compound was tested for its inhibitory activity against carnitine palmitoyl transferase-A (CPT-A)
Compound `CCCCCCCCCCC1(C(=O)OC)CO1` (configuration not stated) [2-Decyl-oxirane-2-carboxylic acid methyl ester] has an IC50 of 680 nM.
Work on `CCCCCCCCCCCCCCC1(C(=O)OC)CO1` (racemic) [2-Tetradecyl-oxirane-2-carboxylic acid methyl ester] yielded an IC50 of 300 nM.
`CCCCCCCCCCCCCC1(C(=O)OC)CO1` (configuration not stated) [2-Tridecyl-oxirane-2-carboxylic acid methyl ester] gave an IC50 of 500 nM.
`CCCCCCCCCCCCCCC1(C(=O)O)CO1` (stereo not drawn) [(+/-)2-Tetradecyl-oxirane-2-carboxylic acid] gave an IC50 of 900 nM.
Work on `CCCCCCCCCCCCC1(C(=O)OC)CO1` (configuration not stated) [2-Dodecyl-oxirane-2-carboxylic acid methyl ester] yielded an IC50 of 600 nM.
`CCCCCCC1(C(=O)OC)CO1` (configuration not stated) [2-Hexyl-oxirane-2-carboxylic acid methyl ester] gave an IC50 of 136000 nM.
For `CCCCCCCCCCCC1(C(=O)OC)CO1` (configuration not stated) [2-Undecyl-oxirane-2-carboxylic acid methyl ester], the IC50 was 1160 nM.
